The values that follow are results of earlier work, collected in US8318912B2, “Targeted immune conjugate comprising an antibody to glycophorin A and a M2e peptide” (priority 2006, dated 2012).

The target in this data set is vitamin B12-binding protein. Particulars: alternative docking pair to biotin-avidin; read-out: Kd of vitamin B12 bound by vitamin B12-binding protein.

For the substance cyanocobalamin [vitamin B12], the Kd – broadly, the equilibrium constant for the complex coming apart – was 100 pM.
